Data taken from EPA's ToxValDB 9.5.
In brackets after ≈: the same amount, converted by molar mass. Several values for one entry are separate records, joined by “and”; a condition that tells them apart may be missing. Equal entries are not always repeated.

Key:
Bibionidae = conditions: chronic/long-term, other
Colinus virginianus = conditions: reproduction developmental
Daphnia magna = conditions: chronic/long-term; duration: 21 days; reproduction
Oncorhynchus mykiss = conditions: for NOEC: chronic/long-term; for LC50: acute, duration: 96 hours, mortality
Tagia sp. = conditions: chronic/long-term, duration: 56 days
Typhlodromus pyri = test: LR50; higher = less toxic; conditions: not reported; mortality
Danio rerio = conditions: acute; duration: 96 hours; mortality
Anas platyrhynchos = conditions: short-term; duration: 8 days; oral; feed; body weight
Bovidae = conditions: oral; for LEL: diet
Gallus gallus = conditions: subchronic
Lolium perenne = conditions: acute; growth
Meleagris sp. = conditions: no effects
Mus musculus = conditions: chronic; duration: 2 years; M/F; B6C3F1; body weight
Anatidae = conditions: subchronic; duration: 41 days; oral; feed; M/F; no effects
Rattus norvegicus = conditions: oral, diet, M/F
Felidae = conditions: acute; oral; diet; Cat; neurology
Raphanus sp. = conditions: acute; duration: 19 days; seedling emergence
Sus scrofa = conditions: oral, diet, Not specified
Macromiidae = conditions: acute; duration: 72 hours; growth
Capra sp. = conditions: subchronic; duration: 56 days; food consumption
Ovis sp. = conditions: subchronic; duration: 3 months; oral; diet; food consumption

CC(C)C1(C)N=C(c2nc3ccccc3cc2C(=O)O)NC1=O (stereo not given) [Imazaquin]
NOEC (Bibionidae; duration: 28 days): 228 mg/kg | NOAEL (Canidae; chronic, duration: 1 years, oral, Dog Other, clinical signs): 25 mg/kg-day | NOEC (Colinus virginianus): 16.6 mg/kg-day | NOEC (Daphnia magna): 100 mg/L | NOEC (Oncorhynchus mykiss; duration: 28 days, growth): 51.2 mg/L | NOAEL (Oryctolagus sp.; reproduction developmental, mortality): 250 mg/kg-day | NOEC (Tagia sp.): 0.0275 mg/kg | LR50 (Typhlodromus pyri): > 4 g/ha

O=C1O[C@H]([C@@H](O)CO)C(O)=C1O [L-Ascorbic acid]
LC50 (Danio rerio): 32 µg/mL (≈ 182 µM) | LC50 (Oncorhynchus mykiss): 1020 µg/mL (≈ 5790 µM)

CC[C@@]1([C@@H]2O[C@@H]([C@H]3O[C@@](O)(CO)[C@H](C)C[C@@H]3C)C[C@@H]2C)CC[C@H]([C@]2(C)CC[C@]3(C[C@H](O)[C@@H](C)[C@@H]([C@@H](C)[C@@H](OC)[C@H](C)C(=O)[O-])O3)O2)O1.[Na+] [Monensin sodium]
NOEL (Anas platyrhynchos): 62 mg/kg | LEL (Bovidae; chronic, duration: 160 days, M/F, no effects): 110 mg/kg-day | LEL (Bovidae; short-term, duration: 28 days, M/F, no effects): 4.5 mg/kg-day | NOEL (Canidae; repeat dose other, oral, Dog Other, clinical signs): 0.345 mg/kg-day | LD50 (Equus caballus; acute, oral, gavage, mortality): 1.38 mg/kg | LEL (Gallus gallus; duration: 35 days, oral, diet, M/F, no effects): 125 mg/kg-day | NOEC (Lolium perenne): 2 mg/kg | LEL (Meleagris sp.; subchronic, duration: 84 days, oral, feed, M/F): 100 mg/kg | NOEL (Mus musculus): 1.2 mg/kg-day | LC50 (Oncorhynchus mykiss): 1.88 µg/mL | NOEC (Oncorhynchus mykiss; duration: 50 days, development): 0.05 mg/L | NOAEL (Oryctolagus sp.; reproduction developmental): 0.3 mg/kg-day | NOEL (Oryctolagus sp.; reproduction developmental, duration: 23 days, oral, gavage, F, body weight): 0.3 mg/kg-day | NOEC (Tagia sp.; reproduction): 50 mg/kg

CC[C@@H](C(=O)O)[C@@H]1O[C@@H]([C@@H](C)[C@H](O)[C@H](C)C(=O)[C@H](CC)[C@H]2O[C@]3(C=C[C@@H](O)[C@]4(CC[C@@](C)([C@H]5CC[C@](O)(CC)[C@H](C)O5)O4)O3)[C@H](C)C[C@@H]2C)[C@@H](C)C[C@@H]1C [Narasin]
LEL (Anatidae): 280 mg/kg | NOEL (Bovidae; short-term, duration: 14 days, gavage, F, clinical signs): 0.5 mg/kg-day | NOAEL (Canidae; chronic, duration: 1 years, oral, capsule, M/F, Dog Other, histopathology: nonneoplastic): 0.5 mg/kg-day | LEL (Equus caballus; short-term, duration: 1 months, oral, feed, M/F, food consumption): 80 mg/kg | LC50 (Oncorhynchus mykiss): 2.23 µg/mL (≈ 2.91 µM) | LEL (Oryctolagus sp.; acute, Hungarian, clinical signs): ≥ 35 mg/kg-day | NOEC (Pontoscolex corethrurus; acute, duration: 7 days, body weight): 4.3 mg/kg

O=[N+]([O-])c1ccc([As](=O)(O)O)cc1 [Nitarsone]
LEL (Canidae; subchronic, duration: 90 days, oral, diet, Dog Other, no effects): 37.5 mg/kg-day | LEL (Meleagris sp.; not reported): 750 mg/kg | NOEL (Rattus norvegicus; chronic, duration: 2 years, Long-Evans, histopathology: nonneoplastic): 2 mg/kg-day

CC[C@@H](C(=O)[C@@H](C)[C@@H](O)[C@H](C)[C@@H]1O[C@@H]([C@@H](CC)C(=O)[O-])CC[C@@H]1C)[C@H]1O[C@]2(C=C[C@@H](O)[C@]3(CC[C@@](C)([C@H]4CC[C@](O)(CC)[C@H](C)O4)O3)O2)[C@H](C)C[C@@H]1C.[Na+] [Salinomycin sodium]
NOEC (Bibionidae): 6.6 mg/kg | LEL (Bovidae; subchronic, duration: 11 weeks, morphology): 90 mg/kg-day | NOAEL (Canidae; acute, duration: 1 days, oral, gavage, Beagle, clinical signs): 0.5 mg/kg-day | NOAEL (Canidae; chronic, duration: 1 years, oral, diet, Dog Other, neurology): 0.5 mg/kg-day | NOAEL (Canidae; chronic, duration: 12 months, Dog Other): 0.5 mg/kg-day | NOEL (Canidae; chronic, duration: 12 months, oral, capsule, M/F, Dog Other, neurology): 0.5 mg/kg-day | NOEL (Canidae; repeat dose other, oral, capsule, Dog Other, clinical signs): 0.625 mg/kg-day | LC50 (Danio rerio): 6.98 µg/mL | LEL (Equus caballus; other, oral, feed, clinical signs): ≥ 0.12 mg/kg | LEL (Felidae): ≥ 16 mg/kg-day | LEL (Gallus gallus; duration: 5 weeks, oral, diet, M, body weight): 140 mg/kg-day | LEL (Gallus gallus; duration: 12 weeks, oral, diet, body weight): 60 mg/kg-day | LEL (Gallus gallus; duration: 42 days, organ weight): 140 mg/kg-day | LEL (Gallus gallus; duration: 56 days, growth): 150 mg/kg-day | LC50 (Oncorhynchus mykiss): 1.7 µg/mL and 1.14 µg/mL | NOEL (Oryctolagus sp.; reproduction developmental, duration: 24 days, oral, diet, F, reproduction): 0.5 mg/kg-day | NOEL (Oryctolagus sp.; reproduction developmental, reproduction): 0.5 mg/kg-day | LEL (Oryctolagus sp.; subchronic, duration: 6 weeks, oral, diet, food consumption): ≤ 25 mg/kg-day | LC50 (Raphanus sp.): 2.6 mg/kg | LOEL (Rattus norvegicus; chronic, duration: 2 years, Wistar, clinical chemistry): 1.5 mg/kg-day | NOAEL (Rattus norvegicus; subchronic, duration: 90 days, Sprague-Dawley, organ weight): 0.6 mg/kg-day | NOAEL (Sus scrofa; chronic, duration: 14 weeks, M/F, no effects): ≥ 5 mg/kg-day

O=C([O-])CC[C@@H](C(=O)[O-])N(CC(=O)[O-])CC(=O)[O-].[Na+].[Na+].[Na+].[Na+] [Tetrasodium glutamate diacetate]
LEL (Gallus gallus; duration: 35 days, oral, diet, M, Chicken, body weight): 10000 mg/kg-day | NOEC (Macromiidae): 1 mg/L | NOAEL (Oryctolagus sp.; reproduction developmental, duration: 21 days, oral, gavage, F, New Zealand, clinical signs): 20 mg/kg-day | NOEC (Pontoscolex corethrurus; reproductive, no effects): 248 mg/kg

Cn1cnc2c1c(=O)[nH]c(=O)n2C [Theobromine]
LEL (Capra sp.): 300 mg/kg-day | LEL (Equus caballus; acute, no effects): 0.5 mg/kg | NOAEL (Oryctolagus sp.; developmental, development): 21 mg/kg-day | NOAEL (Ovis sp.): 35 mg/kg-day | NOAEL (Sus scrofa; subchronic, growth): 7 mg/kg-day
